Test results from patent publication US6462086B1, “Non-malignant disease treatment with Ras antagonists” (Ramot University Authority for Applied Research and …, priority 1999, dated 2002).

How the values were obtained:
Ras = Ras in membranes (P100) and cytosol (S100) of cultured spleen lymphocytes (Western immunoblot); format: cell-based, mouse; settings: for amount of insoluble (P100) Ras: 24 h, relative to FTS 0 μM = 100
Procedure: Spleen lymphocytes, obtained from six mice as described above, were pooled and plated in 10 cm dishes containing RPMI/5% FCS at a density of 2.3×10^7 cells per plate. […] Twenty-four hours later the cells were collected (pools of 2 plates for each treatment) and washed in PBS. The cells were then homogenized in homogenization buffer containing protease inhibitors. Ras was determined in total cell membranes (P100) and cytosol (S100) obtained by centrifugation ([…], 30 min, 4° C.). Briefly, 25 μg of total cellular proteins were separated by 12.5% sodium dodecylsulfate polyacrylamide gel electrophoresis (SDS-PAGE) and blotted onto nitrocellulose membranes. Immunoblotting with pan-Ras, enhanced chemiluminescense assays (ECL) and densitometric analysis were then performed as detailed previously (14).

human HSC = assay: PDGF-induced migration of human hepatic stellate cells (modified Boyden chamber); format: cell-based; settings: PDGF-BB 10 ng/ml, 24 h FTS, read-out: FTS concentration inhibiting (50%) the PDGF-stimulated cell migration
Procedure: Human HSCs were isolated from wedge sections of normal human liver unsuitable for transplantation as previously reported (6, 7). Briefly, after a combined digestion with collagenase/pronase, HSCs were separated from other liver nonparenchymal cells by ultracentrifugation over gradients of stractan (Cellsep™ isotonic solution, Larex Inc., St. Paul, Minn.). Extensive characterization was performed as described in (7). Cells were cultured on plastic culture dishes (Falcon, Becton Dickinson, Lincoln Park, N.J.) in Iscove's modified Dulbecco's medium supplemented with 0.6 U/ml insulin, 2.0 mmol/L glutamine, 0.1 mmol/L nonessential amino acids, 1.0 mmol/L sodium pyruvate, antibiotic antifungal solution (all provided by Gibco Laboratories, Grand Island, N.Y.) and 20% fetal bovine serum (Imperial Laboratories, Andover, U.K.). Experiments described in this study were performed on cells between third and fifth serial passages (1:3 split ratio) using three independent cell lines.
Cell migration was carried out as previously described (9, 10). […] After fixing in 96% methanol and staining with Harris' hematoxylin solution, cells that migrated to the underside of the filters were quantitated as the mean number of cells in 10 high-power fields (HPF). […] Possible cytotoxic effects were monitored by the trypan blue exclusion test.

[1] = test system: spleen lymphocytes of MRL/lpr and MRL/++ mice; assay: MRL/lpr and MRL/++ mouse spleen lymphocyte proliferation ex vivo; format: in vivo; settings: for response to ConA (stimulation index): 5 mg/Kg FTS for 3 months
Procedure: Mice were killed by cervical dislocation and spleens removed with sterile precautions and placed in disposable plastic Petri dishes containing Dulbecco's phosphate-buffered saline (DPBS). Single cell suspensions were obtained by expressing DPBS through the spleen using a syringe and 19 gauge needle. The cells were suspended in DPBS and centrifuged at 1100 rpm for 7 minutes. Erythrocytes were lysed by a 7-minute incubation in 0.83% (weight/volume) ammonium chloride, and cells were immediately washed three times with DPBS. Spleen cells were suspended to a concentration of 3×10^6 cells/ml in RPMI-1640 medium containing 5% fetal calf serum (FCS), 100 units/ml penicillin, 100 μg/ml streptomycin, 2 mM L-glutamine, 0.1 mM non-essential amino acids, 1 mM sodium pyruvate, and 50 μM 2-mercaptoethanol. Cells were cultured at a concentration of 6×10^5 cells/200 μl culture medium/well in 96-well, flat-bottomed, microculture plates, and were incubated for 72 hours in a humidified atmosphere of 95% air and 5% CO2 at 37° C. At the end of this time, 1 μCi tritiated thymidine (3H-TdR) was added to each well in a 10 μl volume and the cultures were further incubated for 18 hours. Cells from each microculture were harvested on fibroglass filters with multiharvester and counted in liquid scintillation β counter.
Mitogens and antigens were diluted to appropriate concentrations in the incubation medium and added to the wells at the beginning of incubation period to give a final concentration of 1.0 μg/ml lipopolysaccharide (LPS), 1.0 μg/ml Concanavalin A (ConA) or 10 μg/ml beta2-Glycoprotein I (beta2-GPI). Spontaneous proliferation (without mitogen or antigen) was also assessed.
To determine the effect of FTS on the MRL/lpr and MRL/++ mouse splenocyte proliferation ex vivo, spleen cells suspensions were prepared from three individual spleens per group, and were separately analyzed in culture (in triplicate). Splenocyte proliferation was evaluated in the presence of LPS, ConA or β2-GPI.
The results are expressed as the mean value of stimulation index per group. The stimulation index was calculated as follows: the mean dpm of cells cultured in the presence of mitogen/antigen divided by the mean dpm of cells cultured in the absence of mitogen/antigen.
The effect of FTS on lymphocyte proliferation in vivo in MRL/lpr and control MRL/++ mice was determined by ex-vivo experiments. The mice received 5 mg/Kg FTS (5 days a week) for 3 months and spleen lymphocyte proliferation assays were then performed in vitro with no added FTS. Baseline 3H-TdR incorporation was similar in all four groups examined except for a trend towards higher values in the MRL/++ mice treated with FTS. […] As described previously (18, 19), the response of the MRL/lpr mice to ConA was markedly lower than in the MRL/++ control mice. […] An antigen-specific proliferative response to β2-GPI was measured and a significant 50% reduction in the response of lymphocytes of FTS-treated mice was measured in both MRL/lpr and MRL/++ mice.

[2] = test system: lymphocytes from draining lymph nodes of EAE SJL mice; assay: Ex vivo proliferative responses of lymph node lymphocytes from FTS-treated EAE mice; format: in vivo, mouse; settings: for proliferative response of lymphocytes (cpm): FTS 5 mg/Kg i.p. daily, day 10
[3] = FTS-treated mice compared to controls

SMILES: CC(C)=CCC/C(C)=C/CC/C(C)=C/CSc1ccccc1C(=O)O [FTS, farnesyl thiosalicylic acid]
- amount of insoluble (P100) Ras (Ras; FTS 12.5 μM): 84±9.8%
- amount of insoluble (P100) Ras (Ras; FTS 50μM as printed): 52±16%
- levels of soluble (S100) Ras (Ras; FTS 12.5 and 25 μM): no concomitant observable change
- IC50 (human HSC): 2 to 2.5 µM
- reduction of the response to LPS (stimulation index) ([1]; 5 mg/Kg FTS 5 days a week for 3 months): two-fold reduction
- decrease in splenocyte proliferation to ConA, LPS and β2-GPI ([1]; FTS 5 mg/Kg/day): 50%
- response to ConA (stimulation index) ([1]; MRL/++ mice): not in lymphocytes of the FTS-treated MRL/++
- response to ConA (stimulation index) ([1]; MRL/lpr mice): further reduced
- reduction in the proliferative response to β2-GPI ([1]; both MRL/lpr and MRL/++ mice): 50%
- change of reactivity to ConA [2, 3]: no change of reactivity
- decrease in the reactivity of lymphocytes to GMBP [2, 3]: 83%
- decrease in the reactivity of lymphocytes to PLP-peptide [2, 3]: 72%
- decrease of the reactivity to PPD and to LPS [2, 3]: 50-57%
- proliferative response of lymphocytes (cpm) ([2]; antigen: GMBP): 7,864 ± 636 cpm
- stimulation index (S.I.) ([2]; antigen: GMBP, FTS-treated EAE mice): 1.8
- proliferative response of lymphocytes (cpm) ([2]; antigen: PLP): 8,901 ± 2,014 cpm
- stimulation index (S.I.) ([2]; antigen: PLP, FTS-treated EAE mice): 2.1
- proliferative response of lymphocytes (cpm) ([2]; antigen: PPD): 27,342 ± 3,627 cpm
- stimulation index (S.I.) ([2]; antigen: PPD, FTS-treated EAE mice): 6.4
- proliferative response of lymphocytes (cpm) ([2]; antigen: none): 4,266 ± 508 cpm
- reduction in response to myelin specific antigens ([2]; ex vivo, FTS-treated EAE mice): > 78%
- proliferative response of lymphocytes (cpm) ([2]; mitogen: ConA): 86,870 ± 7,483 cpm
- stimulation index (S.I.) ([2]; mitogen: ConA, FTS-treated EAE mice): 20.4
- proliferative response of lymphocytes (cpm) ([2]; mitogen: LPS): 45,196 ± 4,246 cpm
- stimulation index (S.I.) ([2]; mitogen: LPS, FTS-treated EAE mice): 10.6
